Data reported in patent US9079913B2, “Spiro-oxindole MDM2 antagonists” (The Regents of the University of Michigan, priority 2009, dated 2015).
Read-outs that look alike come from different tables or passages of the source.

Tests used:
[1] = tested on: cancer cell lines with wild-type p53 / mutated or deleted p53 (ATCC); assay: Cell growth assay (WST-8), other cancer cell lines; format: cell-based
[2] = target: recombinant human His-tagged MDM2 protein (residues 1-118) (Homo sapiens (Human), UniProt Q00987); assay: Fluorescence-polarization MDM2 binding assay;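 note: fluorescence polarization read after three hours of incubation in potassium phosphate buffer containing bovine gamma globulin and Triton X-100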
Chain of recombinant human His-tagged MDM2 protein (residues 1-118) (Q00987 1-118): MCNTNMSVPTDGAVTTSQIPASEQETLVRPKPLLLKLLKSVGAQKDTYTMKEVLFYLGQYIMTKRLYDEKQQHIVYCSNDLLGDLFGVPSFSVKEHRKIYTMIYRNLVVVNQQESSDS
Procedure: The assay was performed in the buffer: 100 mM potassium phosphate, pH 7.5; 100 μg/mL bovine gamma globulin; 0.02% sodium azide, 0.01% Triton X-100) and the polarization values were measured after 3 h of incubation using an ULTRA READER (Tecan U.S. Inc., Research Triangle Park, N.C.). […] The Kd value was calculated using the equation: Kd value=IC50−L0/2.
The polarization values were measured after 3 h of incubation. […] Curve fitting was performed using [sequence] PRISM software (GraphPad Software, Inc., San Diego, Calif.). […] Compounds shown in Tables 19A-D as the free base were tested either as the free base or as the CF3CO2H (TFA) or HCl salt.

[3] = tested on: Isogenic HCT-116 colon cancer cell lines; assay: cells; format: cell-based;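 note: cells grown in 96-well plates in McCoy's 5A medium with 10% FBS, exposed to compound for 4 days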
Procedure: Cells were seeded in 96-well flat bottom cell culture plates at a density of 2−3×10^3 cells/well with compounds and incubated for 4 days.

[4] = Homo sapiens, LNCaP, Table 19C, LNCaP cells, read-out: Cell growth inhibition using WST assay, LNCaP IC50
[5] = Homo sapiens, PC-3, Table 19C, PC3 cells, read-out: Cell growth inhibition using WST assay, PC3 IC50
[6] = Table 19C, read-out: Bidning affinities to MDM2 as determined using FP assay IC50
[7] = Homo sapiens, HCT-116, read-out: Cell growth inhibition using WST assay, HCT116 p53KO IC50, Table 19C, HCT116 p53KO
[8] = Homo sapiens, HCT-116, read-out: Cell growth inhibition using WST assay, HCT116 p53WT IC50, Table 19C, HCT116 p53WT
[9] = Homo sapiens, LNCaP, Table 19B, LNCaP cells, read-out: Inhibition of cell growth IC50, LNCaP
[10] = Homo sapiens, PC-3, Table 19B, PC3 cells, read-out: Inhibition of cell growth IC50, PC3
[11] = Table 19B, read-out: Binding affinities to MDM2 protein as determined by FP based assay IC50
[12] = Homo sapiens, HCT-116, read-out: Inhibition of cell growth IC50, HCT116 p53 KO, Table 19B, HCT116 p53 KO
[13] = Homo sapiens, HCT-116, read-out: Inhibition of cell growth IC50, HCT116 p53 WT, Table 19B, HCT116 p53 WT
[14] = Homo sapiens, LNCaP, Table 19A, LNCAP cells, p53 wild-type, cell growth, read-out: LNCAP (p53 wild-type) IC50
[15] = Homo sapiens, PC-3, Table 19A, PC-3 cells, deleted p53, cell growth, read-out: PC-3 (deleted p53) IC50
[16] = Table 19A, FP binding assay, read-out: MDM2 IC50
[17] = Homo sapiens, HCT-116, read-out: HCT-116 (p53-/-) IC50, Table 19A, HCT-116 p53-/-, cell growth
[18] = Homo sapiens, HCT-116, read-out: HCT-116 (p53 wild-type) IC50, Table 19A, HCT-116 p53 wild-type, cell growth
[19] = Homo sapiens, SJSA-1, Table 19A, SJSA-1 cells, p53 wild-type, cell growth, read-out: SJSA-1 (p53 wild-type) IC50

Question: How did the IC50 [1, 4] turn out when CC(C)(CCO)C[C@H]1N[C@@H](C(=O)NCC[C@H](O)CO)[C@H](c2cccc(Cl)c2)[C@@]12C(=O)Nc1cc(Cl)c(F)cc12 [MI-319-36] was run?
Answer: The IC50 was 6.4 ± 1.4 µM.

Question: And the IC50 [1, 5]?
Answer: The IC50 was over 30 µM.

Question: And the IC50 [2, 6]?
Answer: Its IC50 is under 5 µM.

Question: What about the IC50 [3, 7] of the same molecule?
Answer: The IC50 was over 30 µM.

Question: And the IC50 [3, 8]?
Answer: The IC50 was 12.2 ± 1.7 µM.

Question: How did the IC50 [1, 4] turn out when CC(C)(C)C[C@H]1N[C@@H](C(=O)NCC[C@H](O)CO)[C@H](c2cncc(Cl)c2)[C@@]12C(=O)Nc1cc(Cl)c(F)cc12 [MI-319-34] was run?
Answer: Its IC50 is under 10 µM.

Question: And the IC50 [1, 5]?
Answer: Its IC50 is over 30 µM.

Question: And the IC50 [2, 6]?
Answer: Its IC50 is under 10 µM.

Question: And the IC50 [3, 7]?
Answer: Its IC50 is over 30 µM.

Question: And the IC50 [3, 8]?
Answer: The IC50 was 9.5 ± 2.1 µM.

Question: CC(C)(C)C[C@H]1N[C@@H](C(=O)NCC[C@H](O)CO)[C@H](Cc2ccccc2)[C@@]12C(=O)Nc1cc(Cl)c(F)cc12 [MI-319-23] was tested. Which IC50 [1, 4] did it give?
Answer: Its IC50 is over 10 µM.

Question: And the IC50 [1, 5]?
Answer: Its IC50 is over 10 µM.

Question: And the IC50 [2, 6]?
Answer: Its IC50 is over 10 µM.

Question: And the IC50 [3, 7]?
Answer: Its IC50 is over 10 µM.

Question: What about the IC50 [3, 8] of the same molecule?
Answer: The IC50 was over 10 µM.

Question: Which IC50 [1, 9] does the source give for O=C(NCC[C@H](O)CO)[C@@H]1N[C@H](CCc2ccsc2)[C@]2(C(=O)Nc3cc(Cl)c(F)cc32)[C@H]1c1cccc(Cl)c1 [MI-707] here?
Answer: The IC50 was 0.3 µM.

Question: What about the IC50 [1, 10] of the same molecule?
Answer: The IC50 was 4.6 ± 2.9 µM.

Question: What about the IC50 [2, 11] of the same molecule?
Answer: The IC50 was under 5 µM.

Question: And the IC50 [3, 12]?
Answer: The IC50 was 1.3 ± 0.2 µM.

Question: And the IC50 [3, 13]?
Answer: Its IC50 is 0.6 ± 0.1 µM.

Question: With O=C(NCC[C@H](O)CO)[C@@H]1N[C@H](CCc2cccs2)[C@]2(C(=O)Nc3cc(Cl)c(F)cc32)[C@H]1c1cccc(Cl)c1 [MI-703] as the molecule, how does the IC50 [1, 9] read?
Answer: The IC50 was 0.2 µM.

Question: And the IC50 [1, 10]?
Answer: The IC50 was 3.9 ± 0.5 µM.

Question: And the IC50 [2, 11]?
Answer: The IC50 was over 1 µM.

Question: And the IC50 [3, 12]?
Answer: The IC50 was 4.3 ± 1.6 µM.

Question: What about the IC50 [3, 13] of the same molecule?
Answer: Its IC50 is 1 ± 0.2 µM.

Question: What does the source list for CC(C)(C)C[C@H]1N[C@@H](C(=O)NCC[C@H](O)COC(=O)CC(=O)O)[C@H](c2ccc(F)c(Cl)c2)[C@@]12C(=O)Nc1cc(Cl)c(F)cc12 [MI-319-26]?
Answer: IC50 [1, 4]: < 5 µM; IC50 [1, 5]: > 10 µM; IC50 [2, 6]: < 1 µM; IC50 [3, 7]: > 10 µM; IC50 [3, 8]: < 5 µM

Question: With CN1CCC(CNC(=O)[C@@H]2N[C@H](CC(C)(C)C)[C@]3(C(=O)Nc4cc(Cl)ccc43)[C@H]2c2cccc(Cl)c2F)CC1 [MI-519-53-1] as the molecule, how does the IC50 ([1]; Homo sapiens, LNCaP, Table 19D, LNCaP cells, read-out: LNCaP IC50) read?
Answer: Its IC50 is under 1 µM.

Question: And the IC50 ([1]; Homo sapiens, PC-3, Table 19D, PC3 cells, read-out: PC3 IC50)?
Answer: Its IC50 is over 3 µM.

Question: What about the IC50 ([1]; Homo sapiens, Table 19D, SJSA-1 cells, unit inferred, read-out: SJSA-1) of the same molecule?
Answer: Its IC50 is under 1 µM.

Question: What about the IC50 ([2]; Table 19D, read-out: MDM2 Binding Affinities IC50) of the same molecule?
Answer: Its IC50 is under 1 µM.

Question: What about the IC50 ([3]; Homo sapiens, HCT-116, read-out: HCT116p53KO IC50, Table 19D, HCT116 p53KO) of the same molecule?
Answer: Its IC50 is over 3 µM.

Question: What about the IC50 ([3]; Homo sapiens, HCT-116, read-out: HCT116p53WT IC50, Table 19D, HCT116 p53WT) of the same molecule?
Answer: Its IC50 is under 1 µM.

Question: CC(C)CC(C)(C)C[C@H]1N[C@@H](C(=O)NCC[C@H](O)CO)[C@H](c2cccc(Cl)c2F)[C@@]12C(=O)Nc1cc(F)c(F)cc12 [MI-732] was tested. Which IC50 [1, 9] did it give?
Answer: The IC50 was 0.7 µM.

Question: What about the IC50 [1, 10] of the same molecule?
Answer: The IC50 was 5.8 µM.

Question: What about the IC50 [2, 11] of the same molecule?
Answer: The IC50 was under 1 µM.

Question: And the IC50 [3, 12]?
Answer: Its IC50 is 10.2 ± 4.8 µM.

Question: And the IC50 [3, 13]?
Answer: The IC50 was 0.7 ± 0.1 µM.

Question: CC(C)(C)C[C@H]1N[C@@H](C(=O)NCC[C@H](O)CN)[C@H](c2cccc(Cl)c2)[C@@]12C(=O)Nc1cc(Cl)c(F)cc12 [MI-319-25] was tested. Which IC50 [1, 4] did it give?
Answer: The IC50 was under 5 µM.

Question: And the IC50 [1, 5]?
Answer: The IC50 was over 10 µM.

Question: What about the IC50 [2, 6] of the same molecule?
Answer: Its IC50 is under 1 µM.

Question: And the IC50 [3, 7]?
Answer: Its IC50 is over 10 µM.

Question: And the IC50 [3, 8]?
Answer: The IC50 was under 5 µM.

Question: Which results are given for CN1[C@@H](C(=O)NCC[C@H](O)CO)[C@H](c2cccc(Cl)c2)[C@@]2(C(=O)Nc3cc(Cl)c(F)cc32)[C@H]1CC(C)(C)C [MI-708B]?
Answer: IC50 ([1]; Table 19B, LNCaP cells, read-out: Inhibition of cell growth IC50, LNCaP): 6 ± 0.3 µM; IC50 ([1]; Table 19B, PC3 cells, read-out: Inhibition of cell growth IC50, PC3): 84.5 ± 18.3 µM; IC50 [2, 11]: > 3 µM; IC50 ([3]; read-out: Inhibition of cell growth IC50, HCT116 p53 KO, Table 19B, HCT116 p53 KO): 96.9 ± 17.8 µM; IC50 ([3]; read-out: Inhibition of cell growth IC50, HCT116 p53 WT, Table 19B, HCT116 p53 WT): 6.6 ± 2.2 µM

Question: What does the source list for CN(C)CC(=O)N1CCN(C(=O)[C@@H]2N[C@H](CC(C)(C)C)[C@]3(C(=O)Nc4cc(Cl)c(F)cc43)[C@H]2c2cccc(Cl)c2)CC1 [MI-744]?
Answer: IC50 [1, 14]: 1.7 ± 0.1 µM; IC50 [1, 15]: 7.7 ± 3.1 µM; IC50 [2, 16]: < 10 µM; IC50 [3, 17]: 5.7 ± 3.4 µM; IC50 [3, 18]: 2.4 ± 0.2 µM

Question: Which IC50 [1, 14] does the source give for CC(C)(C)C[C@H]1N[C@@H](C(=O)NC2CCC(N)CC2)[C@H](c2cccc(Cl)c2)[C@@]12C(=O)Nc1cc(Cl)c(F)cc12 (some centres unmarked) [MI-776] here?
Answer: Its IC50 is 2.4 µM.

Question: What about the IC50 [1, 19] of the same molecule?
Answer: The IC50 was 3.2 µM.

Question: What about the IC50 [2, 16] of the same molecule?
Answer: The IC50 was under 1 µM.

Question: What about the IC50 [3, 18] of the same molecule?
Answer: The IC50 was 2.7 µM.

Question: How did the IC50 [1, 14] turn out when CC(C)(C)C[C@H]1N[C@@H](C(=O)NC2CCC(OC(=O)CN)CC2)[C@H](c2cccc(Cl)c2F)[C@@]12C(=O)Nc1cc(Cl)ccc12 (some centres unmarked) [MI-901] was run?
Answer: The IC50 was under 3 µM.

Question: What about the IC50 [1, 15] of the same molecule?
Answer: Its IC50 is over 5 µM.

Question: What about the IC50 [1, 19] of the same molecule?
Answer: The IC50 was under 3 µM.

Question: What about the IC50 [2, 16] of the same molecule?
Answer: The IC50 was under 1 µM.

Question: What about the IC50 [3, 17] of the same molecule?
Answer: Its IC50 is over 10 µM.

Question: What about the IC50 [3, 18] of the same molecule?
Answer: Its IC50 is under 3 µM.

Question: Which IC50 [1, 9] does the source give for CC(C)CC(C)(C)C[C@H]1N(C)[C@@H](C(=O)NCC[C@H](O)CO)[C@H](c2ccc(F)c(Cl)c2)[C@@]12C(=O)Nc1cc(F)c(F)cc12 [MI-738] here?
Answer: The IC50 was 4.8 ± 1 µM.

Question: And the IC50 [1, 10]?
Answer: Its IC50 is 8.5 ± 0.6 µM.

Question: And the IC50 [2, 11]?
Answer: The IC50 was over 3 µM.

Question: What about the IC50 [3, 12] of the same molecule?
Answer: The IC50 was 8.2 ± 0.6 µM.

Question: What about the IC50 [3, 13] of the same molecule?
Answer: The IC50 was 8.5 ± 2.1 µM.
